Measurements reported in paper PMC10359466, “Identification of a small-molecule inhibitor that selectively blocks DNA-binding by Trypanosoma brucei replication protein A1” (Nature Communications, 2023).
“And” between values parts separate entries of the source, which are not always exact repeats. Equal entries are not always repeated. “Also recorded” adds a separate entry of the source. Where two headings read alike, the source gives them in different places.

Experiments:
TbRPA complex [1] = biological target: T1, TbRPA complex (Trypanosoma brucei brucei, UniProt Q384B5); assay: MST inhibition of ssDNA-binding activity, TbRPA complex; set-up: species or system T. brucei
Text: (§1) Samples were then loaded into MST capillaries.
(§2) We used one site binding to obtain a dissociation constant (Kd) and standard 4-parameter logistic curve (Sigmoidal curve) analysis to obtain the IC50 value of JC-229. We used GraphPad Prism software.

[2] = tested on: T. brucei TbRPA1 sKO cells; assay: AlamarBlue cytotoxicity on TbRPA1 single knock-out (sKO) T. brucei cells
Description: To determine the viability of TbRPA1-depleted cells, we carried out the AlamarBlue assay (Thermo Fisher, catalog number A50101), an established colorimetric technique that detects metabolically active cells by measuring resorufin converted from resazurin by reducing the environment of live cells[70]. Cells from each time point were incubated with AlamarBlue dye for 4–6 h, and the percentage of live cells was determined[70]. Synergy H1 microplate reader (BioTek) was used with 560/590 nm (excitation/emission) filter settings and relative fluorescence unit (RFU) values were obtained. The percentage of viable cells were calculated from the RFU values.

TcRPA1 DBD-AB T105S = biological target: T2, TcRPA1 DBD-AB T105S (Trypanosoma cruzi, UniProt Q4DXC9, T105S); assay: MST inhibition of ssDNA-binding activity, TcRPA1 DBD-AB T105S mutant; set-up: species or system T. cruzi
T2 sequence (Q4DXC9 1-247 T105S): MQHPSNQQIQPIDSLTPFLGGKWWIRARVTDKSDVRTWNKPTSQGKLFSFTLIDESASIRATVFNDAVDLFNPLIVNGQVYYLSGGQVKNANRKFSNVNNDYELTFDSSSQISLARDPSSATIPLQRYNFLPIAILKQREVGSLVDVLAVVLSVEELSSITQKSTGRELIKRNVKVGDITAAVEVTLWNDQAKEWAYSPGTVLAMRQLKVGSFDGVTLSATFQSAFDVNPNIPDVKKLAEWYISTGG
Text: as §1, §2

[3] = tested on: TbRPA1, γH2A, VSG3 protein levels in T. brucei cells; assay: Immunoblotting of TbRPA1, γH2A, VSG3; format: cell-based, Trypanosoma brucei; settings: 10 µM
Text: Cells were harvested at indicated time points and suspended in Laemmli buffer (Bio-Rad) at 0.25 million cells per µl. Denatured proteins from whole cells were separated on a 4–20% gradient SDS-PAGE gel (Bio-Rad) and transferred to a nitrocellulose membrane (GE Healthcare). The membranes were probed with polyclonal antibodies against TbRPA1 (a gift from Bibo Li laboratory, ProSci Inc., ID: 21371, dilution factor 1:1,000) or γH2A (generated by ABclonal for this study, antibody ID E16070 (P), dilution factor 1:1,000), or monoclonal mouse antibodies against VSG3 (Antibody and Bioresource Core facility, MSKCC, catalog number cloneVSG224-11D6, lot EQ.11-Pur.-A, dilution factor 1:1,000) or Tubulin (Sigma, catalog number T7451, clone 6-11B-1, lot 0000149704, dilution 1:5000) in 1x PBS with 0.1% Tween 20 and 1% milk (Bio-Rad) at 4 °C overnight. The membranes were then incubated with secondary antibodies conjugated with Horseradish Peroxidase (HRP) (GE Healthcare; Rabbit HRP: catalog number NA934V, lot 17640116; Mouse HRP: catalog number NA931V, lot 17041904, dilution 1:5000) for the detection of corresponding proteins using chemiluminescence (Hyglo ELC solution from Denville Scientific, catalog number E2400; ChemiDoc Imaging System from Bio-Rad).

TcRPA1 DBD-AB = assay: MST inhibition of ssDNA-binding activity, TcRPA1 DBD-AB; set-up: species or system T. cruzi; settings: dT32, 30 nM protein
Text: as §1, §2

HeLa = assay: AlamarBlue cell viability of HeLa cells; format: cell-based, human
Description: To determine the inhibitory effect of JC-229 on human cells, HeLa and HEK293 cells were suspended in 180 μl D-MEM with 10% FBS and plated at a density of 2 × 10^4 cells/ml in triplicate. […] Percent viability was plotted using GraphPad Prism software. […] We estimated the EC50 values using the concentration of JC-229 that causes a 50% reduction of cell viability (inhibitor vs. normalized response, variable slope).

LmexRPA1 DBD-AB = assay: MST inhibition of ssDNA-binding activity, LmexRPA1 DBD-AB; set-up: species or system L. mexicana; settings: dT32, MST
Text: as §1, §2

HsRPA complex [4] = biological target: T3, HsRPA complex (Homo sapiens, UniProt P27694); assay: EMSA inhibition of ssDNA binding, HsRPA complex
T3 construct: made in house; host or cells: E. coli BL21

HsRPA complex [5] = biological target: T3, HsRPA complex; assay: MST inhibition of ssDNA-binding activity, HsRPA complex; settings: dT32, MST
Text: as §1, §2

TbRPA complex [6] = biological target: T1, TbRPA complex; assay: EMSA inhibition of ssDNA binding, TbRPA complex

T1 sequence (Q38DK0 entry or part of it): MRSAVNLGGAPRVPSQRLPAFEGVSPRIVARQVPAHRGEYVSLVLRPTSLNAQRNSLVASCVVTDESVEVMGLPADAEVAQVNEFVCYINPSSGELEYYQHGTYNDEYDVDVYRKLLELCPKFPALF
T1 sequence (Q57ZN9 entry or part of it, further chain): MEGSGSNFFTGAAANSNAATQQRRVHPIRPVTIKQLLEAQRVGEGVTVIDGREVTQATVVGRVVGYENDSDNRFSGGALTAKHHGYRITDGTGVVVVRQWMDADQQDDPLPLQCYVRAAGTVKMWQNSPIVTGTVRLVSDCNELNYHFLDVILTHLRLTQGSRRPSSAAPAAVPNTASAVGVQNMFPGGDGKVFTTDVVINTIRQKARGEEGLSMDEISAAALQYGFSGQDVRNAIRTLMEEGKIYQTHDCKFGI
T1 sequence (Q384B5 entry or part of it): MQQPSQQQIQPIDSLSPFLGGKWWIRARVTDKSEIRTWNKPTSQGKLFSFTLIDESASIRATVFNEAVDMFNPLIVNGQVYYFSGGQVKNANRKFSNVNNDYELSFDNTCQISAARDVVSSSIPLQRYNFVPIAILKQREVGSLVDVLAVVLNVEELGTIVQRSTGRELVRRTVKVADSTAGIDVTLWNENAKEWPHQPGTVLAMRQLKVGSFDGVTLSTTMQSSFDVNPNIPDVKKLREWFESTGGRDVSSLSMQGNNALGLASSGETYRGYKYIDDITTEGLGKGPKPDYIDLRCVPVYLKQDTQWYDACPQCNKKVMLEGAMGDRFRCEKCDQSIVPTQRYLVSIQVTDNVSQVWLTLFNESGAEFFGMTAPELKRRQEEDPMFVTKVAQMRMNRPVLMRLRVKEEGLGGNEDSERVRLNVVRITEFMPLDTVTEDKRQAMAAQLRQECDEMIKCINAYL
T3 sequence (P27694 whole entry): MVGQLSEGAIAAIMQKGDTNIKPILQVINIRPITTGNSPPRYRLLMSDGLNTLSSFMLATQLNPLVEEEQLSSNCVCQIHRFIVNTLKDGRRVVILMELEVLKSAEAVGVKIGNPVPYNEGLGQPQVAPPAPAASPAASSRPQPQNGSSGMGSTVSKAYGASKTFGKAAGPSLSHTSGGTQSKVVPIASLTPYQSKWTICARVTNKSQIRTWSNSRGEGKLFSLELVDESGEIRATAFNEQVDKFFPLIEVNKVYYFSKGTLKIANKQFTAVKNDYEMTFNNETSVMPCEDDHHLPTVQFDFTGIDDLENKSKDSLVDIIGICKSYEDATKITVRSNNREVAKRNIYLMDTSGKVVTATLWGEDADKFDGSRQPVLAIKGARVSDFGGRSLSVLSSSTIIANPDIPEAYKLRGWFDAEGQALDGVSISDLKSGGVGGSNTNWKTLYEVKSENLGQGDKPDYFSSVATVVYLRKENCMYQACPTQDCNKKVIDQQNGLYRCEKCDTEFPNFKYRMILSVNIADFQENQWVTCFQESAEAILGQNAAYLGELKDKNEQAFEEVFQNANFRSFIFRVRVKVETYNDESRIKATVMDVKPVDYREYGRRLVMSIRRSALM
T3 sequence (P15927 whole entry partner): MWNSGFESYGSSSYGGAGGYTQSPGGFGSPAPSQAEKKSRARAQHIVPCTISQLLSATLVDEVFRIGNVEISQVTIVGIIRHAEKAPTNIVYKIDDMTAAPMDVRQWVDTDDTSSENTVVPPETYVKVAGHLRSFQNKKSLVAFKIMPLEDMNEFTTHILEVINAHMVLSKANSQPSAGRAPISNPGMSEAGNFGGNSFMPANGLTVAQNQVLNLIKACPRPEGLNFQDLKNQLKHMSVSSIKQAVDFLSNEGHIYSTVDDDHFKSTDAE
T3 sequence (P35244 whole entry partner): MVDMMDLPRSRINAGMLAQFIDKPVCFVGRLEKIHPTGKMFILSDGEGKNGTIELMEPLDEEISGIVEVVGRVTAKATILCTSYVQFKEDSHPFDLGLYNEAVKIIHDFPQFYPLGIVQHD

## Cc1ccc(C(=O)Nc2ccc(Cl)c(Cl)c2)cc1S(=O)(=O)Nc1ccc(Cl)c(Cl)c1 [JC-229, N-(3,4-dichlorophenyl)−3-(N-(3,4-dichlorophenyl)sulfamoyl)−4-methylbenzamide]
TbRPA complex [1]; dT20, 25 nM complex, MST (Supplementary Fig. 11d)
  IC50: 33.9 nM and ~33.9 nM
TbRPA complex [1]; dT32, 25 nM complex, MST (Fig. 5d)
  IC50: 24.5 nM
TbRPA complex [1]; dT32, 25 nM complex, MST (Supplementary Fig. 11d, 18g)
  IC50: 33.9 nM and ~33.9 nM
[2]; Trypanosoma brucei, 72 h, read-out: EC50, single KO (∆/WT), 72 h, [Inhibitor] vs. norm response, variable slope
  EC50: 4.93 µM
[2]; Trypanosoma brucei, read-out: EC50, single KO (∆/WT), Suppl. Table 5-B, Sigmoidal, 4-PL
  EC50: 4.61 µM
[2]; read-out: EC50, single KO (∆/WT), 72 h, [Inhibitor] vs. norm response, variable slope
  EC50: 5 µM
TcRPA1 DBD-AB T105S
  IC50: 159 µM
[3]
  Levels of VSG3: increased
  Levels of γH2A: increased
  TbRPA1 protein levels: did not change
TcRPA1 DBD-AB
  IC50, inhibition of TcRPA1 DBD-AB ssDNA binding: No inhibition; also recorded: did not inhibit
HeLa; 6.5 µM
  Inhibition of HeLa at EC50 to T. brucei: barely inhibited
HeLa; Homo sapiens, HeLa, 72 h, 0.5-50 μM, 72 h, AlamarBlue, inhibitor vs. normalized response, variable slope (Fig. 3f)
  EC50: 32 µM
HeLa; Homo sapiens, HeLa, 72 h, Sigmoidal, 4-PL (Suppl. Table 1-B)
  EC50: 13.2 µM
HeLa; Homo sapiens, HeLa, 50 µM, 72 h, read-out: Inhibition of HeLa at maximum concentration
  inhibition at 50 µM: < 100%
LmexRPA1 DBD-AB
  IC50, inhibition of LmexRPA1 DBD-AB ssDNA binding: No inhibition; also recorded: did not inhibit
HsRPA complex [4]
  Effect on binding of HsRPA complex to ssDNA (EMSA): no effect
HsRPA complex [5]
  IC50, inhibition of HsRPA complex ssDNA binding: No inhibition; also recorded: no inhibitory effect
TbRPA complex [6]
  Inhibition of TbRPA complex binding to ssDNA (EMSA): inhibited
